Our source for the AC50, EC50 and IC50 values is ChEMBL document CHEMBL1201862, “PubChem BioAssay data set” (2004).

One may read the AC50 as the concentration at which the activity in the assay is half-maximal.

The structures appear in SMILES notation. The source made the active and inactive calls.

Luciferin 4-monooxygenase, sequence (P08659 whole entry): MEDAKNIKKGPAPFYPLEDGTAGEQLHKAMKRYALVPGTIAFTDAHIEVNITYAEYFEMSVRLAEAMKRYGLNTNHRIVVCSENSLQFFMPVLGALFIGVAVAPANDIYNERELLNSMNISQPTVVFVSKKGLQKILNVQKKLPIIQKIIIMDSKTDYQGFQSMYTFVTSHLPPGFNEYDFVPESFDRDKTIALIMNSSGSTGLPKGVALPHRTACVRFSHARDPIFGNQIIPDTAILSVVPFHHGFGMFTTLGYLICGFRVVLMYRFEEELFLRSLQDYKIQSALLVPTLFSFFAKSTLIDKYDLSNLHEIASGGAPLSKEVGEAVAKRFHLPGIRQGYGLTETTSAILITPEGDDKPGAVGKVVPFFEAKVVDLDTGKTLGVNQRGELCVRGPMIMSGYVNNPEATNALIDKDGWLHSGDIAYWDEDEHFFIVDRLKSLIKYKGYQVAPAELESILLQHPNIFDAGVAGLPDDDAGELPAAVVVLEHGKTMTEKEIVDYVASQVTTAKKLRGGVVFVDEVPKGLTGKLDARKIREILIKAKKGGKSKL
Cytochrome P450 2C19, sequence (P33261 whole entry): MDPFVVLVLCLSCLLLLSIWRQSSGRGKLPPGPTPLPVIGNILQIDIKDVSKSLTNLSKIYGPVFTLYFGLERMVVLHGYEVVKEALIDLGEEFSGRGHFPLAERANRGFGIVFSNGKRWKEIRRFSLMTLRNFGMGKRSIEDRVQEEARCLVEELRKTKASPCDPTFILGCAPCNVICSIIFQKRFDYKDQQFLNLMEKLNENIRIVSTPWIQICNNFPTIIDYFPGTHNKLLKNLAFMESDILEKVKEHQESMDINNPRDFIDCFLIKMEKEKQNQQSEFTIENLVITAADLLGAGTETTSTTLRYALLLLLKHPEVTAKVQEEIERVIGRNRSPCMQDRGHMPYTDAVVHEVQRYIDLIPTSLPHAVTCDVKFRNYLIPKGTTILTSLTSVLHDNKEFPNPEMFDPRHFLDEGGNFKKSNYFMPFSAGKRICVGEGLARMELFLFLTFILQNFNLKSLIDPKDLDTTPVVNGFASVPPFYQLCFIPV
Cytochrome P450 3A4, sequence (P08684 whole entry): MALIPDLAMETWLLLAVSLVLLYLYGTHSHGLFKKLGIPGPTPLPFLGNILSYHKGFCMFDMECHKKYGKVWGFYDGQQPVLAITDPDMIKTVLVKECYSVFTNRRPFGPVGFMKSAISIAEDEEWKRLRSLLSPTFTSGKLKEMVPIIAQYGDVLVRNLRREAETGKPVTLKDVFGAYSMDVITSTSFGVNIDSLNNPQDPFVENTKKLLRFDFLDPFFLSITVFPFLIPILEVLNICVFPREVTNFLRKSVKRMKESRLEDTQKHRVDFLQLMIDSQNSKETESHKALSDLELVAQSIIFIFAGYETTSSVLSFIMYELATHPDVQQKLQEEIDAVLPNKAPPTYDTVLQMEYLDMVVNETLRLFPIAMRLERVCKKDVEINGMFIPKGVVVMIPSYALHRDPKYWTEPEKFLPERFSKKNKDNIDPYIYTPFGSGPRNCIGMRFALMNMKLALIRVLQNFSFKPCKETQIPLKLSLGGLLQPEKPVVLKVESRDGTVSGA

The target in one experiment is Cytochrome P450 2D6 (Homo sapiens, UniProt P10635).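 Further: CYP2D6 member of a cytochrome P450 panel assay.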
Cytochrome P450 2D6, sequence (P10635 whole entry): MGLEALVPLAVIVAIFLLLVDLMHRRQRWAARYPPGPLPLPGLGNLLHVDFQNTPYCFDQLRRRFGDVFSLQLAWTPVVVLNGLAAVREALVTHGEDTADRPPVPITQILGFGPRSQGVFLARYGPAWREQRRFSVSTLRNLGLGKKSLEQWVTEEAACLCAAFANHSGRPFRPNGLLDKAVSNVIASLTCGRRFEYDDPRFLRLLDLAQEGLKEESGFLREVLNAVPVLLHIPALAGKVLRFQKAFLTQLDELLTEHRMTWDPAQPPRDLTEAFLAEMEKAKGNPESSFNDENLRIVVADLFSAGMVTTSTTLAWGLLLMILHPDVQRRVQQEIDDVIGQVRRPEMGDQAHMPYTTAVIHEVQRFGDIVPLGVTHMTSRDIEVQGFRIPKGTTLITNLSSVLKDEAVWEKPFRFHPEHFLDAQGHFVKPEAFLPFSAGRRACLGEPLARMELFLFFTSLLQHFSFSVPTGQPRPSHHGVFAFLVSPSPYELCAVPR
Experiment: not given
Conditions: not given
In the case of `CCCCC1(CCCC)C(=O)N=C(Nc2cccc(C)c2)NC1=O`, the concentration at half-maximal activity (AC50) was 14.1 µM (inconclusive).

Another experiment deals with Cytochrome P450 2C9 (Homo sapiens, UniProt P11712).
Cytochrome P450 2C9, sequence (P11712 whole entry): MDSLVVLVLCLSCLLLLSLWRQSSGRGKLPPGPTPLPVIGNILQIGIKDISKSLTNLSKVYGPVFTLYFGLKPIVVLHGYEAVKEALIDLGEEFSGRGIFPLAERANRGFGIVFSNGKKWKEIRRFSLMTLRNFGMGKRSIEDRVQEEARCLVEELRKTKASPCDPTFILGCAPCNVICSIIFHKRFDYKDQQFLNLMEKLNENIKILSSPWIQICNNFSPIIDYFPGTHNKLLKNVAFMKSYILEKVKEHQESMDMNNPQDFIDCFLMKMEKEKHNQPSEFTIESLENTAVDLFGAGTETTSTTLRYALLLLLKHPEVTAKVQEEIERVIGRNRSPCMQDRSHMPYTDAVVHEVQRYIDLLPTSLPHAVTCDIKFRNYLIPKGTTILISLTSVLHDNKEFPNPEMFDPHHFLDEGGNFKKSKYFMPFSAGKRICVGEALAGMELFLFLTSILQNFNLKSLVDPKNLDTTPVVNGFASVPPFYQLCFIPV
Experiment: not given
Conditions: not given
As to `CC(=O)NC(C)C(c1cccs1)N1CCN(c2ccccc2)CC1` (stereo unspecified), the AC50 was 11.2 µM (inconclusive).

Tested on in a further experiment: not listed separately
Put plainly: growth suppression of PTEN-null colon cells, dose response, cell-based, HCT116 PTEN knockout (AID 1047).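 Further: HCT116 colon tumor cells with PTEN knocked out; cells exposed to compound for 60 hours before readout; potency for loss of cell viability measured by luminescence.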 Format: functional.
Conditions: not given
For the compound `CCCCc1ccc(C2C3=C(CC(C)(C)CC3=O)N=C3C2=C(O)c2ccccc23)cc1` (stereo unspecified), the EC50 is 13.2 µM (active).

Regarding `C#CCN1C(=O)C(O)(CC(=O)c2ccc(OC)c(OC)c2)c2ccccc21` (stereo unspecified), the EC50 was 18 µM (active).

As to `COc1ccc(-c2cc(C(F)(F)F)c(C#N)c(SCC(=O)Nc3nc(C)co3)n2)cc1`, the EC50 is 10.9 µM (active).

As to `Cc1ccc(-n2nc3ccc(NC(=O)/C=C/c4ccco4)cc3n2)cc1C`, the EC50 is 8.83 µM (active).

`Cc1nc2cc(N3CCCCC3)c(NC(=O)c3ccncc3)cc2c(=O)n1Cc1ccc(Cl)cc1`: the EC50 is 3.49 µM (active).

For the compound `COc1cc(/C=C(\C#N)c2nc3ccccc3[nH]2)cc(Br)c1OCc1ccccc1`, the EC50 is 15.8 µM (active).

As to `CCCCC1(CCCC)C(=O)N=C(Nc2cccc(C)c2)NC1=O`, the EC50 is 12.1 µM (active).

As for `CCCN(CCC)S(=O)(=O)c1ccc(C(=O)Nc2nnc(CSC)o2)cc1`, the EC50 was 14.2 µM (active).

As for `CCOC(=O)c1c(Nc2ccc(Cl)cc2)sc(/C=C2\C=Nc3ccccc32)c1O`, the EC50 was 6.61 µM (active).

On to `COc1cccc(C(=O)N/N=C/C(Br)=C/c2ccccc2)c1`, for which the EC50 is 6.24 µM (active).

A further experiment addresses Cytochrome P450 3A4 (Homo sapiens, UniProt P08684).
Experiment: not given
Conditions: not given
For `CC(=O)NC(C)C(c1cccs1)N1CCN(c2ccccc2)CC1` (stereo unspecified), the AC50 was 39.8 µM (inconclusive).

The next experiment concerns the target Cytochrome P450 2C19 (Homo sapiens, UniProt P33261). Briefly: Cytochrome panel assay with activity outcomes. Panel member name: p450-cyp2c19 Compounds with AC50 equal or less than 10 uM are considered active. Type of experiment: functional. The conditions noted are these: read-out: AC50.
For `CC(=O)NC(C)C(c1cccs1)N1CCN(c2ccccc2)CC1` (stereo unspecified), the AC50 is 3.98 µM (inconclusive).

The next experiment has as its target Luciferin 4-monooxygenase (Photinus pyralis, UniProt P08659). Briefly: firefly luciferase enzyme inhibitors, dose response, biochemical, luminescence (AID 1891).
Conditions: not given
In the case of `CC(C)c1nnc(NC(=O)CCC(=O)N2CCN(c3ccc(F)cc3)CC2)s1`, the EC50 is > 112 µM (not active).

As to `CCOC(=O)C(C)Oc1cccc2c(=O)n(CC(=O)NCCc3ccc(OC)c(OC)c3)ccc12` (stereo unspecified), the EC50 was > 112 µM (not active).

With `CN(Cc1cnccn1)C(=O)CC1C(=O)NCCN1Cc1cccc(Oc2ccccc2)c1` (stereo unspecified), the EC50 is > 112 µM (not active).

Tested on in another experiment: not listed separately
Briefly: growth suppression of beta-catenin-knockout colon cells, dose response, cell-based, HCT116, human colon tumor (AID 1045).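 Further: HCT116 colon tumor cells with beta catenin knocked out; cells exposed to compound for 60 hours.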 Type of experiment: functional.
Conditions: not given
For `CCCCc1ccc(C2C3=C(CC(C)(C)CC3=O)N=C3C2=C(O)c2ccccc23)cc1` (stereo unspecified), the EC50 is 18.2 µM (active).

In the case of `C#CCN1C(=O)C(O)(CC(=O)c2ccc(OC)c(OC)c2)c2ccccc21` (stereo unspecified), the EC50 was 21.2 µM (active).

On to `COc1ccc(-c2cc(C(F)(F)F)c(C#N)c(SCC(=O)Nc3nc(C)co3)n2)cc1`, for which the EC50 was 9.24 µM (active).

Take `Cc1ccc(-n2nc3ccc(NC(=O)/C=C/c4ccco4)cc3n2)cc1C`: the EC50 is 11.7 µM (active).

Take `Cc1nc2cc(N3CCCCC3)c(NC(=O)c3ccncc3)cc2c(=O)n1Cc1ccc(Cl)cc1`: the EC50 was 3.8 µM (active).

On to `COc1cc(/C=C(\C#N)c2nc3ccccc3[nH]2)cc(Br)c1OCc1ccccc1`, for which the EC50 is 16.7 µM (active).

Regarding `CCCCC1(CCCC)C(=O)N=C(Nc2cccc(C)c2)NC1=O`, the EC50 is 12.2 µM (active).

As for `CCCN(CCC)S(=O)(=O)c1ccc(C(=O)Nc2nnc(CSC)o2)cc1`, the EC50 is 12.7 µM (active).

On to `CCOC(=O)c1c(Nc2ccc(Cl)cc2)sc(/C=C2\C=Nc3ccccc32)c1O`, for which the EC50 is 6.74 µM (active).

Consider `COc1cccc(C(=O)N/N=C/C(Br)=C/c2ccccc2)c1`, for which the EC50 was 6.47 µM (active).

The next experiment concerns the target T1, Corticotropin-releasing factor receptor 2/Corticotropin-releasing factor-binding protein (Homo sapiens, UniProt P24387+Q13324).
T1 sequence (Q13324 whole entry): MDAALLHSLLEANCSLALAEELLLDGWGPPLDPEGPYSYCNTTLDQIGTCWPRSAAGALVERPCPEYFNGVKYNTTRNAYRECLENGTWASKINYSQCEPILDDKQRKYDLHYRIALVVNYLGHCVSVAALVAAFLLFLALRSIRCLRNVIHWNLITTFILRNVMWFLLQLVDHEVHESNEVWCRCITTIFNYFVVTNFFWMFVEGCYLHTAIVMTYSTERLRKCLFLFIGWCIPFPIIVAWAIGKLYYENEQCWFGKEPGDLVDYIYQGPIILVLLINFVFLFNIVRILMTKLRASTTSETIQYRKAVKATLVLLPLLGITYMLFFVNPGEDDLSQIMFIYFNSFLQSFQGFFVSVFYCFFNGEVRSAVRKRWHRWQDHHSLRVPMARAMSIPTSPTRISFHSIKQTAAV
T1 sequence (P24387 whole entry): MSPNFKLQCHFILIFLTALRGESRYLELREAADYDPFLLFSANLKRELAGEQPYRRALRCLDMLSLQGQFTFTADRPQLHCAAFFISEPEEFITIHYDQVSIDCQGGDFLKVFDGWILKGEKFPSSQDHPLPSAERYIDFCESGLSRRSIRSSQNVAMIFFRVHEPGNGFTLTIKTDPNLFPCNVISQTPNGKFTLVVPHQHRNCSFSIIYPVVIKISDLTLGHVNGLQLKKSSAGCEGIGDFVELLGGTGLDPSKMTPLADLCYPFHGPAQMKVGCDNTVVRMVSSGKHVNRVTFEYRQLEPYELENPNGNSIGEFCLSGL
Briefly: activators of CRF receptor 2 with binding protein – uHTS hits, confirmation (AID 602473). Format: functional. The conditions noted are these: read-out: EC50_Mean.
With `Cc1noc(C)c1S(=O)(=O)N1CCC(C(=O)N2CCN(c3ccc(F)cc3)CC2)CC1`, the EC50 was > 53 µM (inactive).

Consider `COc1ccc(C(C)=O)cc1CSc1nnc2c(Cl)cc(Cl)cn12`, for which the EC50 was > 53 µM (inactive).

`O=C(Nc1ccccc1N1CCCCC1)C1CCN(C(=O)c2ccc(Cl)cc2)CC1`: the EC50 was > 53 µM (inactive).

On to `O=C(COc1ccccc1F)N1CCN(CCN2C(=O)c3cccc4cccc(c34)C2=O)CC1`, for which the EC50 is > 53 µM (inactive).

With `CC(C)c1ccc(NC(=S)NN2CCOCC2)cc1`, the EC50 is > 53 µM (inactive).

Turning to `Cc1ccccc1CNC(=O)Nc1cccs1`, the EC50 was > 53 µM (inactive).

`CCCCC1(CCCC)C(=O)N=C(Nc2cccc(C)c2)NC1=O`: the EC50 is 3.98 µM (active).

The target of a further experiment is FAD-linked sulfhydryl oxidase ALR (Homo sapiens, UniProt P55789). Put plainly: inhibitors of human ALR sulfhydryl oxidase, dose response, biochemical, H2O2 detection, luminescence, cherry-pick (AID 493248).
FAD-linked sulfhydryl oxidase ALR, sequence (P55789 whole entry): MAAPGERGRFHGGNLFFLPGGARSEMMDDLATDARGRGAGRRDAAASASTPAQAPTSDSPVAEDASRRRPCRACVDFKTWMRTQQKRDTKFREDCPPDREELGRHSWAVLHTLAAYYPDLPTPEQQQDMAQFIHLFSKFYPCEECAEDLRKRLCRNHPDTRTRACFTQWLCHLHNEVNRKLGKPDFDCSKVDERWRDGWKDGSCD
Conditions: not given
`CC(=O)NC(C)C(c1cccs1)N1CCN(c2ccccc2)CC1` (stereo unspecified): the AC50 is 0.273 µM (active).

A further experiment deals with T1, Corticotropin-releasing factor receptor 2/Corticotropin-releasing factor-binding protein. Briefly: Dose Response confirmation of uHTS hits for small molecule antagonists of the CRF-binding protein and CRF-R2 receptor complex. Type of experiment: functional. The conditions noted are these: read-out: IC50_Mean.
With `Cc1noc(C)c1S(=O)(=O)N1CCC(C(=O)N2CCN(c3ccc(F)cc3)CC2)CC1`, the IC50 is > 47.1 µM (inactive).

As for `COc1ccc(C(C)=O)cc1CSc1nnc2c(Cl)cc(Cl)cn12`, the IC50 was > 47.1 µM (inactive).

With `O=C(Nc1ccccc1N1CCCCC1)C1CCN(C(=O)c2ccc(Cl)cc2)CC1`, the IC50 was > 47.1 µM (inactive).

`O=C(COc1ccccc1F)N1CCN(CCN2C(=O)c3cccc4cccc(c34)C2=O)CC1`: the IC50 is > 47.1 µM (inactive).

As for `CC(C)c1ccc(NC(=S)NN2CCOCC2)cc1`, the IC50 was > 47.1 µM (inactive).

As to `Cc1ccccc1CNC(=O)Nc1cccs1`, the IC50 was > 47.1 µM (inactive).

Take `CCCCC1(CCCC)C(=O)N=C(Nc2cccc(C)c2)NC1=O`: the IC50 was > 47.1 µM (inactive).

Tested on in a further experiment: not listed separately
Put plainly: Luminescence Cell-Based Dose Confirmation HTS to Identify Inhibitors of Platelet Dense Granule Release. [Related pubchem assays: 1663 (Primary HTS), 1678 (Summary of Project)]. Type of experiment: functional.
Conditions: not given
On to `CC(C)c1nnc(NC(=O)CCC(=O)N2CCN(c3ccc(F)cc3)CC2)s1`, for which the EC50 is recorded as > 112 µM (not active).

In the case of `CCOC(=O)C(C)Oc1cccc2c(=O)n(CC(=O)NCCc3ccc(OC)c(OC)c3)ccc12` (stereo unspecified), the EC50 was > 112 µM (not active).

`CN(Cc1cnccn1)C(=O)CC1C(=O)NCCN1Cc1cccc(Oc2ccccc2)c1` (stereo unspecified): the EC50 is > 112 µM (not active).

Another experiment addresses T2, Heat shock factor protein 1 (Mus musculus, UniProt P38532).
T2 sequence (P38532 whole entry): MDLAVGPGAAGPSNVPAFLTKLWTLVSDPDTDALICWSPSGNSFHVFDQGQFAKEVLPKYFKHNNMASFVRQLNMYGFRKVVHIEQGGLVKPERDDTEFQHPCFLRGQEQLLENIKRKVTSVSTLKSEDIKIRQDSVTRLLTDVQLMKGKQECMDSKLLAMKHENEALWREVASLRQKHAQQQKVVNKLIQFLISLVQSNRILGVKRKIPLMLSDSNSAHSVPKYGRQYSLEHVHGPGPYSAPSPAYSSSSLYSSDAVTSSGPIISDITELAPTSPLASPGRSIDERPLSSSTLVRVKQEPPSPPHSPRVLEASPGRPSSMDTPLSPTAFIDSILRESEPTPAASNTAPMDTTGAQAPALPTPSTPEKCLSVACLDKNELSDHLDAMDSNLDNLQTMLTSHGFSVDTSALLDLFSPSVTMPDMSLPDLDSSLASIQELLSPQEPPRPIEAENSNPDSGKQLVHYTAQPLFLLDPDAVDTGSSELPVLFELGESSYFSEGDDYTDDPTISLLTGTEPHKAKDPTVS
Put plainly: inhibition of MG132-induced HSE-luciferase signal, confirmation, cell-based, NIH3T3, luminescence, dose retest (AID 2382).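 Further: NIH3T3 fibroblasts with HSF1-driven luciferase reporter stressed by proteasome inhibitor MG132; luminescence from HSF1-driven luciferase expression after 8 hours of MG132 stress.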
Conditions: not given
Format: functional.
Take `O=C(Nc1ccccc1N1CCCCC1)C1CCN(C(=O)c2ccc(Cl)cc2)CC1`: the EC50 is > 195 µM (not active).
